Like-named read-outs stand apart in the source and are kept apart here.
Experiments:
[1] = test system: MCF-7 cells; experiment: Cytotoxicity toward MCF-7 cells; assay type: cell-based; settings: Homo sapiens, MCF7; read-out: cytotoxicity IC50 ± s.d., MCF-7
Experimental: (§1) Next, analogues 8a–l were evaluated for their cytotoxicities toward Jurkat cells, a human T-cell leukemia model, as well as the breast cancer cell lines MCF-7 and MDA-MB-231, and the multiple myeloma cell line RPMI 8226.

[2] = test system: MDA-MB-231 cells; experiment: Cytotoxicity toward MDA-MB-231 cells; assay type: cell-based; settings: Homo sapiens, read-out: cytotoxicity IC50 ± s.d., MDA-MB-231
Experimental: as §1

[3] = test system: RPMI 8226 cells; experiment: Cytotoxicity toward RPMI 8226 cells; assay type: cell-based; settings: Homo sapiens, read-out: cytotoxicity IC50 ± s.d., RPMI 8226
Experimental: as §1

[4] = biological target: T1, β5 subunit of human proteasomes (hβ5) (Homo sapiens, UniProt P28074); experiment: Proteasome chymotrypsin-like (β5) activity in crude Jurkat cell lysate, Suc-LLVY-AMC substrate; assay type: biochemical; settings: read-out: proteasome inhibition IC50 ± s.d., hβ5
T1 construct: endogenous in cells; host or cells: Jurkat cell lysate (crude)
T1 sequence (P28074 60-263): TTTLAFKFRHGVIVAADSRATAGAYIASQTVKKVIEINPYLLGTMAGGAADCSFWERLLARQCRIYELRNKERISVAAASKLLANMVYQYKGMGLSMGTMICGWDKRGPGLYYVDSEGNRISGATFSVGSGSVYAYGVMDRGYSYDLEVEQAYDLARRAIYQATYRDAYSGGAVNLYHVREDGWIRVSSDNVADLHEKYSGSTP
Experimental: Based on our previously reported procedure, the degree of peptide cleavage in a crude Jurkat cell lysate was measured to determine proteasome activity. The fluorescent substrate Suc-LLVY-AMC (Enzo Life Sciences) was used to determine chymotrypsin-like (β5) activity of the proteasomes.

[5] = test system: Jurkat cells; experiment: Cytotoxicity toward Jurkat cells; assay type: cell-based; settings: Homo sapiens, read-out: cytotoxicity IC50 ± s.d., Jurkat
Experimental: as §1

[6] = test system: MCF-10A cells; experiment: Cytotoxicity toward MCF-10A cells (normal breast tissue model); assay type: cell-based; settings: Homo sapiens, model for normal breast tissue
[7] = Experimentally determined LogP; assay type: physicochemical
[8] = Biological stability in serum; assay type: in vitro ADME
From the text: (§2) Isosteric replacement of the phenyl ring at Pz by either a pyridyl or pyrazyl group was well tolerated, allowing the inclusion of one (compounds 8b–d and 8g–i) or two nitrogen atoms (compounds 8e and 8j).

[9] = Half-life in buffer; assay type: physicochemical
From the text: as §2

[10] = cited from earlier work
[11] = test system: RPMI 8226 cells; set-up: method as in PMID 30165344; settings: earlier work; read-out: cytotoxicity IC50, RPMI 8226; cited from earlier work
[12] = test system: MDA-MB-231 cells; set-up: method as in PMID 30165344; settings: earlier work; read-out: cytotoxicity IC50, MDA-MB-231; cited from earlier work
[13] = test system: MCF-7 cells; set-up: method as in PMID 30165344; settings: earlier work; read-out: cytotoxicity IC50, MCF-7; cited from earlier work

| SMILES | IC50 [1] [nM] | IC50 [2] [nM] | IC50 [3] [nM] | IC50 [4] [nM] | IC50 [5] [nM] | IC50 [6] [nM] | logP [7] | biological stability in serum [8] | half-life [9] [min] | peripheral neuropathy, share of patients [10] | IC50 [11] [nM] | IC50 [12] [nM] | IC50 [13] [nM] |
| --- | --- | --- | --- | --- | --- | --- | --- | --- | --- | --- | --- | --- | --- |
| CC[C@H](C)[C@@H]1C(=O)O[C@H]1C(=O)N[C@H](C(=O)N[C@@H](COCc1ccccc1)C(=O)NCc1ccccc1)C(C)C [8a] | 2290 ± 195 | 1940 ± 166 | 64 ± 4 | 2.3 ± 0.9 | 12 ± 2 |  |  |  |  |  |  |  |  |
| CC[C@H](C)[C@@H]1C(=O)O[C@H]1C(=O)N[C@H](C(=O)N[C@@H](COCc1ccccc1)C(=O)NCc1ccccn1)C(C)C [8b] | 453 ± 24 | 156 ± 3 | 139 ± 6 | 4.1 ± 1.9 | 58 ± 14 |  |  |  |  |  |  |  |  |
| CC[C@H](C)[C@@H]1C(=O)O[C@H]1C(=O)N[C@H](C(=O)N[C@@H](COCc1ccccc1)C(=O)NCc1cccnc1)C(C)C [8c] | 5630 ± 550 | 242 ± 6 | 85 ± 3 | 3.9 ± 1.8 | 71 ± 19 |  |  |  |  |  |  |  |  |
| CC[C@H](C)[C@@H]1C(=O)O[C@H]1C(=O)N[C@H](C(=O)N[C@@H](COCc1ccccc1)C(=O)NCc1ccncc1)C(C)C [8d] | 5300 ± 598 | 328 ± 12 | 37 ± 1 | 3 ± 1.2 | 64 ± 10 |  |  |  |  |  |  |  |  |
| CC[C@H](C)[C@@H]1C(=O)O[C@H]1C(=O)N[C@H](C(=O)N[C@@H](COCc1ccccc1)C(=O)NCc1cnccn1)C(C)C [8e] | 5180 ± 602 | 255 ± 6 | 31 ± 2 | 8.4 ± 3.4 | 132 ± 4 |  |  |  |  |  |  |  |  |
| CC[C@H](C)[C@@H]1C(=O)O[C@H]1C(=O)N[C@H](C(=O)N[C@@H](COCc1ccccc1)C(=O)NCc1cc(OC)cc(OC)c1)C(C)C [8f] | 322 ± 39 | 53 ± 2 | 26 ± 1 | 4.5 ± 1.5 | 63 ± 2 |  |  |  |  |  |  |  |  |
| CC[C@H](C)[C@@H]1C(=O)O[C@H]1C(=O)N[C@H](C(=O)N[C@@H](COCc1ccccc1)C(=O)OCc1ccccn1)C(C)C [8g] | 1020 ± 42 | 39 ± 2 | 21 ± 3 | 7.1 ± 1.6 | 35 ± 10 | 123 | 1.65 | greater than 5 min | > 10 |  |  |  |  |
| CC[C@H](C)[C@@H]1C(=O)O[C@H]1C(=O)N[C@H](C(=O)N[C@@H](COCc1ccccc1)C(=O)OCc1cccnc1)C(C)C [8h] | 3800 ± 293 | 132 ± 3 | 43 ± 2 | 3.3 ± 1.8 | 61 ± 16 |  |  |  |  |  |  |  |  |
| CC[C@H](C)[C@@H]1C(=O)O[C@H]1C(=O)N[C@H](C(=O)N[C@@H](COCc1ccccc1)C(=O)OCc1ccncc1)C(C)C [8i] | 4930 ± 403 | 108 ± 7 | 35 ± 3 | 4 ± 1.1 | 36 ± 10 |  |  |  |  |  |  |  |  |
| CC[C@H](C)[C@@H]1C(=O)O[C@H]1C(=O)N[C@H](C(=O)N[C@@H](COCc1ccccc1)C(=O)OCc1cnccn1)C(C)C [8j] | 4530 ± 290 | 146 ± 3 | 48 ± 2 | 13.7 ± 1.6 | 166 ± 9 |  |  |  |  |  |  |  |  |
| CC[C@H](C)[C@@H]1C(=O)O[C@H]1C(=O)N[C@H](C(=O)N[C@@H](COCc1ccccc1)C(=O)OCc1ccc(Cl)cc1)C(C)C [8k] | 3500 ± 279 | 222 ± 15 | 182 ± 4 | 18.2 ± 54 | 182 ± 15 |  |  |  |  |  |  |  |  |
| CC[C@H](C)[C@@H]1C(=O)O[C@H]1C(=O)N[C@H](C(=O)N[C@@H](COCc1ccccc1)C(=O)OCc1ccc(OC)cc1)C(C)C [8l] | 1670 ± 267 | 636 ± 47 | 112 ± 2 | 18.8 ± 5 | 2260 ± 158 |  |  |  |  |  |  |  |  |
| CC(C)C[C@H](NC(=O)[C@H](Cc1ccccc1)NC(=O)c1cnccn1)B(O)O [bortezomib] |  |  |  |  |  |  |  |  |  | more than 30% |  |  |  |
| CC(C)C[C@H](NC(=O)[C@H](CCc1ccccc1)NC(=O)CN1CCOCC1)C(=O)N[C@@H](Cc1ccccc1)C(=O)N[C@@H](CC(C)C)C(=O)[C@@]1(C)CO1 [carfilzomib, reference compound] | 5.9 ± 0.7 | 4.4 ± 0.1 | 3.7 ± 0.3 |  | 3.7 ± 0.3 | 79 |  |  |  |  |  |  |  |
| CC[C@H](C)[C@@H]1C(=O)O[C@H]1C(=O)N[C@H](C(=O)N[C@@H](COCc1ccccc1)C(=O)OCc1ccccc1)C(C)C [compound 1] | 2380 ± 261 | 620 ± 50 | 45 ± 0.5 |  | 62 ± 7 |  |  |  |  |  | 41 | 74 | 416 |

Reference: article PMC9515629, “Cystargolide-based amide and ester Pz analogues as proteasome inhibitors and anti-cancer agents” (Royal Society Open Science, 2022)
